The values below come from publication PMC6100056, “Antitumor Effects and Delivery Profiles of Menahydroquinone-4 Prodrugs with Ionic or Nonionic Promoiety to Hepatocellular Carcinoma Cells” (Molecules : A Journal of Synthetic Chemistry and Natural …, 2018).

The structures appear in SMILES notation. pIC50: −log10 of the molar value. Structures can show the parent of a compound that is named as a salt.

For orientation: pIC50 means the negative decadic logarithm of the IC50, by convention in mol/L. A word on the melting point: it is the temperature of the solid-liquid transition. By half-life is commonly meant the time in which the quantity being followed falls by half.

One series relates to PLC/PRF/5 cells. Kind of series: Cell viability assay (Cell Titer-Glo). The settings on record: for pIC50: Homo sapiens, 95% confidence interval in square brackets; for IC50 lower than that of MK-4: 96 h of treatment. The format is cell-based. How it is done: (§1) To assess the effects of MKH-ester prodrugs on HCC cell proliferation, DCP-positive (PLC/PRF/5) and DCP-negative (SK-Hep-1) HCC cell lines were treated with various concentrations of MKH-ACT, MKH-DMG, MKH-SUC or MK-4 up to 96 h, and cell viability was determined.
(§2) Cell viability was determined using a previously reported method. Briefly, PLC/PRF/5 and SK-Hep-1 cells were plated at 5.0 × 10^3 cells/well in 96-well plates and allowed to attach for 48 h. MK-4 and MKH-ACT were dissolved in 99.5% ethanol. MKH-SUC was dissolved in DMSO. MKH-DMG was dissolved in sterilized water. Stock solutions of each drug (50 mM) were diluted to the intended final concentrations with medium. Cells were exposed to MK-4, MKH-ACT, MKH-DMG or MKH-SUC for up to 96 h, and cell viability was evaluated using the Cell Titer-Glo Luminescent Cell Viability Assay (Promega, Madison, WI, USA) according to the manufacturer’s instructions. IC50 values were determined by a log [drug] vs. normalized response-variable slope analysis of GraphPad Prism, version 6.0 (GraphPad Software, San Diego, CA, USA).
In general terms: In ATP-based viability assays light output follows the ATP content of the culture.

For the next series, the system named is SK-Hep-1 cells. Kind of series: Cell viability assay (Cell Titer-Glo). The format is cell-based. The settings on record: for IC50 lower than that of MK-4: 96 h of treatment; for pIC50: Homo sapiens, 95% confidence interval in square brackets. How it is done:
as §1, §2

Details of series [1]: method as in PMID 17537874, PMID 10077437. The following applies: cited from earlier work.
Series [2] can be described thus: Hydrolysis of MKH-SUC in isotonic buffer solution (PBS). The format is physicochemical. The settings on record: in PBS at 37 °C; read-out: Half-life toward MKH (converted). How it is done: Next, a time course of MKH delivery with the MKH derivatives, including MK-4, was investigated. The AUC0–24h values for MKO after treatment of MKH-SUC was the highest among the three MKH-derivatives in both HCC cell lines, and the AUC0–24h values for MKH after treatment of MKH-SUC were also the highest (Table 3). […] However, the difference in MKH delivery was not higher than that of the regeneration to MKH by the esterase of HCC (Figure 4 and Table 2). […] These differences may result from the actual amount (nearly equal to Vmax values) of uptake and the regeneration step between MKH-ACT and MKH-DMG, and the rates of transportation/enzymatic reactions to the substances (Km) of MKH-ACT and MKH-DMG may be sufficient to reach Vmax under the test conditions shown in Figure 5. […] Regarding the decrease of MK-4 after 24 h treatment of MKH-SUC in both cells (Figure 5D,H), this phenomenon may be explained by the disposition of hydrolysis of MKH-SUC in an isotonic buffer solution. […] This is because, at 24 h, the delivery of MKH, which acts as a cofactor of GGCX, remained sufficient, but excess MKH that would be oxidized to MK-4 may be reduced with the elimination of MKH-SUC.

In turn, `CC(=O)Oc1c(C)c(C/C=C(\C)CC/C=C(\C)CC/C=C(\C)CCC=C(C)C)c(OC(C)=O)c2ccccc12` [MKH-ACT, Menahydroquinone-4 1,4-bis acetate] showed a melting point of 39 to 41 °C. In the series on PLC/PRF/5 cells (72 h), this compound had a pIC50 of 3.82. The pIC50 with PLC/PRF/5 cells (96 h) is 3.94. The “IC50 lower than that of MK-4” value with SK-Hep-1 cells is listed as 1.23 fold. The compound also had a pIC50 in the series with SK-Hep-1 cells (SK-HEP1, 72 h) of 4.15. Also, the pIC50 with SK-Hep-1 cells (SK-HEP1, 96 h) is 4.14.

`CC(C)=CCC/C(C)=C/CC/C(C)=C/CC/C(C)=C/Cc1c(C)c(OC(=O)CN(C)C)c2ccccc2c1OC(=O)CN(C)C` [MKH-DMG, Menahydroquinone-4 1,4-bis-N,N-dimethylglycinate hydrochloride]: the “IC50 lower than that of MK-4” value with PLC/PRF/5 cells is reported as 3.17 fold; in the series with SK-Hep-1 cells it was 3.61 fold. The pIC50 in the series with PLC/PRF/5 cells (48 h) was 4.20; with PLC/PRF/5 cells (72 h), 4.48; with PLC/PRF/5 cells (96 h), 4.56; in the series with SK-Hep-1 cells (SK-HEP1, 48 h), 4.15; in the series with SK-Hep-1 cells (SK-HEP1, 72 h), 4.49; in the series with SK-Hep-1 cells (SK-HEP1, 96 h) it was 4.61. Moreover, the “Hydrolysis in human plasma” value in series [1] is “not accelerated”.

Regarding `CC(C)=CCC/C(C)=C/CC/C(C)=C/CC/C(C)=C/Cc1c(C)c(OC(=O)CCC(=O)O)c2ccccc2c1OC(=O)CCC(=O)O` [MKH-SUC, Menahydroquinone-4 1,4-bis hemisuccinate], the “IC50 lower than that of MK-4” value in the series on PLC/PRF/5 cells is 4.32 fold; with SK-Hep-1 cells, 12.3 fold. Further, the pIC50 in the series on PLC/PRF/5 cells (48 h) is 4.31; in the series with PLC/PRF/5 cells (72 h), 4.58; in the series on PLC/PRF/5 cells (96 h), 4.70; in the series on SK-Hep-1 cells (SK-HEP1, 48 h), 4.11; in the series on SK-Hep-1 cells (SK-HEP1, 72 h), 4.80; in the series on SK-Hep-1 cells (SK-HEP1, 96 h), 5.15. Besides, in series [2], the half-life was about 25 h.
